From patent publication US8728515B2, “Adjuvants for use in vaccination” (Bangor University, priority 2008, dated 2014)

What was measured:
[1] = system: airway CD11c+ cells; assay: Gene transcription profiling of airway CD11c+ cells (RT-qPCR on broncho-alveolar lavage cells after intratracheal liposomes); format: in vivo, mouse; settings: liposomes intratracheally, after 48 hours
Method: (§1) Female C57BL/6J mice were purchased from Janvier and housed under specific pathogen free conditions in individually ventilated cages and fed ad libitum. Mice were 8-12 weeks old at the start of experiments.
(§2) Briefly, the compounds were mixed with phosphatidylcholine (Sigma) in chloroform. The chloroform was evaporated and the lipids recovered in sterile saline. After ultrasound sonication and vortexing, samples of 25 μg mycolic acids/100 μl/mouse were administered intratracheally. A liposome control was prepared similarly, but without the addition of any mycolic acid compound.
Airway CD11c^+ cells include alveolar macrophages and dendritic cells, which are professional phagocytes and the most important cell types in the early recognition of non-self threats to the airways. Next to mounting an immediate appropriate innate immune response to these threats, CD11c^+ cells alert and instruct adaptive immune responses by means of 3 different signals: antigen-presentation, surface expression of T-cell co-stimulatory molecules and secretion of instruction cytokines. Whereas dendritic cells migrate to the draining lymph nodes in order to initiate a peripheral antigen-specific immune response, alveolar macrophages remain in the airways to further control local inflammation, but also to locally attract and orchestrate the acquired immune response by lymphocytes.
In order for a locally applied vaccine to be effective, safe adjuvants that give the appropriate signal to CD11c^+ cells are needed to both increase the immunogenicity of the vaccine and direct the type of the acquired immune response. […] After 48 hours, the mice were sacrificed and broncho-alveolar lavage performed to measure the CD11c^+-cell gene transcription by RT-qPCR.

[2] = system: C57BL/6 mice; assay: Inflammatory cell infiltration to the airways and lung tissue damage after intratracheal mycolic acid liposomes; format: in vivo; settings: liposomes intratracheally, 25 μg mycolic acids/100 μl/mouse, after 48 hours
Method: as §1, §2
In order to be considered safe for human administration, compounds should preferably cause as little local inflammation or resulting tissue changes as possible.
After 48 hours, mice were sacrificed and a broncho-alveolar lavage (BAL) was performed to measure the airway cell types and numbers by flowcytometry. Increased cell numbers and the appearance of granulocytes (mainly neutrophils) in the BAL-fluid are indicative for cell recruitment to the airways as result of an inflammatory reaction.
Lavaged lungs were ectomised to allow for histo-pathological examination of the lung tissue. A haematoxylin and eosin staining of the paraffin lung sections was followed by a thorough examination by a skilled pathologist who scored the sections according to the following criteria in a double-blinded manner: […]

In the case of `CCCCCCCCCCCCCCCCCCCCCCCC[C@@H](C(=O)O)[C@H](O)CCCCCCCCCCCCCCCCC[C@@H]1CC1CCCCCCCCCCCCCCCC[C@@H](OC)[C@@H](C)CCCCCCCCCCCCCCCCCC` (some centres unmarked) [Compound 6], the “type of macrophage activation (iNOS = classical, Fizz1 = alternative marker)” value ([1]; alveolar macrophages) is reported as “mixed type of activation”, the “KC (CXCL1) expression” value [1] is reported as “increased” and the “MCP-1 (CCL2) expression” value [1] is reported as “enhance MCP-1 expression even to a greater extend than crude-MA”. For the same compound, the “expression of IL-12p40” value [1] was “strongly stimulate”, the “induction of expression of IL-10” value [1] was “maintained” and the “expression of the inflammatory cytokines TNF-alpha and IL-6” value ([1]; compared with crude-MA) was “less pronounced or absent”.

Compound `CCCCCCCCCCCCCCCCCCCCCCCC[C@@H](C(=O)O)[C@H](O)CCCCCCCCCCCCCCC[C@@H]1C[C@@H]1CCCCCCCCCCCCCCCCCCC(=O)[C@@H](C)CCCCCCCCCCCCCCCCCC` (single isomer, unassigned) [Example 3] has a melting point of 66 to 68 °C.

With `CCCCCCCCCCCCCCCCCCCCCCCC[C@@H](C(=O)O)[C@H](O)CCCCCCCCCCCCCCCC[C@H]1C[C@@H]1[C@@H](C)CCCCCCCCCCCCCCCCCCC(=O)C(C)CCCCCCCCCCCCCCCCCC` (some centres unmarked) [Compound 4] the “lung tissue changes (histo-pathological examination of lung sections)” value [2] was “did not cause any significant lung tissue changes”.
